This note sets out measurements from US10501461B2, “Tyrosine amide derivatives as Rho-kinase inhibitors” (CHIESI FARMACEUTICI S.P.A., priority 2017, dated 2019).

For one test, the target named is Rho kinase 1 (ROCK-I) (Homo sapiens, UniProt Q13464). Briefly: In vitro Rho kinase inhibitory activity assay (ADP-Glo), Rho kinase 1. Type of test: biochemical. To be noted: 10 μM ATP, 25° C., expressed as range of activity. In short, it runs like this:
(§1)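 Human ROCK1 or ROCK2 was preincubated with compound for 30 min at 25 °C in 40 mM Tris pH7.5, 20 mM MgCl2, 0.1 mg/ml BSA, 50 μM DTT, 2.5 μM Myelin Basic Protein, 1% DMSO final. Reactions ran 1 hour with 10 μM ATP final; ADP-Glo luminescence gave IC50 by sigmoidal fit, Ki by Cheng-Prusoff.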
A general note: ADP-Glo turns the ADP formed in a reaction into a luminescent signal.

The next test has as its target Rho kinase 2 (ROCK-II) (Homo sapiens, UniProt O75116). Briefly: In vitro Rho kinase inhibitory activity assay (ADP-Glo), Rho kinase 2. It is filed as biochemical. To be noted: 10 μM ATP, 25° C., expressed as range of activity. In short, it runs like this: as §1

Rho kinase 2 (ROCK-II), sequence (O75116 whole entry): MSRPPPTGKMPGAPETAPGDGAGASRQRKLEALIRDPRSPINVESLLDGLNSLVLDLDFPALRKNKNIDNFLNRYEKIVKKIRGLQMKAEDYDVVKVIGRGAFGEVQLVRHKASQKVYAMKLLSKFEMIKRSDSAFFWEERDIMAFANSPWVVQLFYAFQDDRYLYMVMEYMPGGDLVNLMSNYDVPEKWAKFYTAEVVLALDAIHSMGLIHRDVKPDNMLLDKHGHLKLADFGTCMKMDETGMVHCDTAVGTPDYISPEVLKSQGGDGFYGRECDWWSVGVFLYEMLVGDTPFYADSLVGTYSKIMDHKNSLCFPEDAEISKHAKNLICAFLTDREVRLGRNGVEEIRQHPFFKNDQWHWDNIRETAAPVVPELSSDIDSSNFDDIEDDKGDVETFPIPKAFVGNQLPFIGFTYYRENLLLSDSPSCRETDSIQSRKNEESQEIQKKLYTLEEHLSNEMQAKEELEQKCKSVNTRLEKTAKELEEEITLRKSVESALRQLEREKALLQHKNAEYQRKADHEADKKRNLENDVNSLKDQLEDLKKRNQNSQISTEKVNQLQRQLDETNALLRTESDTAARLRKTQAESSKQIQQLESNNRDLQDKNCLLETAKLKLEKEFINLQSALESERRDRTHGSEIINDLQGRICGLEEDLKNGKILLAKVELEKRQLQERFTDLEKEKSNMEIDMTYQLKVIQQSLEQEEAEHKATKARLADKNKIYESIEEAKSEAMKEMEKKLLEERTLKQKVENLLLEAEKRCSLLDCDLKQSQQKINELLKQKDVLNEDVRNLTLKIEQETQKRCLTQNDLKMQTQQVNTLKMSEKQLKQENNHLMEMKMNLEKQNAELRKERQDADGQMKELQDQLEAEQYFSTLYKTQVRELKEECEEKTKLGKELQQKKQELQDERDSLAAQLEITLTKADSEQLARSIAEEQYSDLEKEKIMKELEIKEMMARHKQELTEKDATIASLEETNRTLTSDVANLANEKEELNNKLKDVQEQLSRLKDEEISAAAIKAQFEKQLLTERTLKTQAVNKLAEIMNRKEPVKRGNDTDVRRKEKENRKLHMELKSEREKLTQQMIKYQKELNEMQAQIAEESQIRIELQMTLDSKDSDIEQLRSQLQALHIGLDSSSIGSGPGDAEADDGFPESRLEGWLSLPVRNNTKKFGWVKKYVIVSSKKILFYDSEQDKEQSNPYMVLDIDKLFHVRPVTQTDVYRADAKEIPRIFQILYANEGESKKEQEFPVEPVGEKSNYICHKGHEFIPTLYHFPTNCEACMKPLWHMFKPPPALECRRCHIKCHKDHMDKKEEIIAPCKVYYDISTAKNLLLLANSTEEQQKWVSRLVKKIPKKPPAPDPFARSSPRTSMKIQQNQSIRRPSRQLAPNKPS
Rho kinase 1 (ROCK-I), sequence (Q13464 whole entry): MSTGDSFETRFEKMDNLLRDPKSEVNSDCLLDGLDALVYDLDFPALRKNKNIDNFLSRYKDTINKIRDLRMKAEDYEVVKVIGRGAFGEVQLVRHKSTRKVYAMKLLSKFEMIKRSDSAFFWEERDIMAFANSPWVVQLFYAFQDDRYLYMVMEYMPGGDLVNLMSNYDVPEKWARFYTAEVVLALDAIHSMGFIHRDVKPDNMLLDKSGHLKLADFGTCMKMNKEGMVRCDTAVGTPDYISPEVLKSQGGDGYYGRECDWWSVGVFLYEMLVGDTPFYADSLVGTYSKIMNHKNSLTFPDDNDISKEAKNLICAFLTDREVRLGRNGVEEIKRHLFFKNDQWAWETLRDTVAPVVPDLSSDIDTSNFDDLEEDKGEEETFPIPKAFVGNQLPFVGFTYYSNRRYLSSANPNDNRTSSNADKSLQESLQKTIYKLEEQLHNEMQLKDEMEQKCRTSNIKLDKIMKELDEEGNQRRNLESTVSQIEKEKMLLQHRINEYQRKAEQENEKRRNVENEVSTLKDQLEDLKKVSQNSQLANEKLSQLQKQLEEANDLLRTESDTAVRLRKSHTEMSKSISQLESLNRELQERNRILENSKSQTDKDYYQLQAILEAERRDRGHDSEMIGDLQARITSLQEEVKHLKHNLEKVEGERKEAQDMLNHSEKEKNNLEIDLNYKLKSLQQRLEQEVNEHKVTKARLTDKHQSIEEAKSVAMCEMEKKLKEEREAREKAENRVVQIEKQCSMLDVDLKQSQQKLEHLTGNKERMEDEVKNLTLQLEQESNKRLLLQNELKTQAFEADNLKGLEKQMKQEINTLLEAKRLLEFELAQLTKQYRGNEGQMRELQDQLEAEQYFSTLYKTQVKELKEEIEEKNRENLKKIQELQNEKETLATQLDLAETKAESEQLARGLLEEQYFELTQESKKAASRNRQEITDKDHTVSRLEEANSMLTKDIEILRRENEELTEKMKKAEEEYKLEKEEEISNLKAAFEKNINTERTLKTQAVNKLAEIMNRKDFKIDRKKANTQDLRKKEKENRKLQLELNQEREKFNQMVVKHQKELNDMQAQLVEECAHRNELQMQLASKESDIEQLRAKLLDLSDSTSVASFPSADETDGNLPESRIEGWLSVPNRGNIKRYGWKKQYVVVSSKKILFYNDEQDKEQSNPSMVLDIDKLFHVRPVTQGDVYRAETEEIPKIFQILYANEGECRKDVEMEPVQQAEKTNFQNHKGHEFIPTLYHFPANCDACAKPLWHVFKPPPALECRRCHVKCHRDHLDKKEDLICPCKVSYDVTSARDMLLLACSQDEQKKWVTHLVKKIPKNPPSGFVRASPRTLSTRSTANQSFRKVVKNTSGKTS

In general, Ki refers to a dissociation constant, usually derived from enzyme kinetics or from competition with a known ligand. Higher therefore signals lower affinity. As for `N[C@@H](Cc1ccc(Oc2ccnc3[nH]cc(CCO)c23)cc1)C(=O)N1CCN(Cc2ccccc2)CC1` [Example 216, (S)-2-amino-1-(4-benzylpiperazin-1-yl)-3-(4-((3-(2-hydroxyethyl)-1H-pyrrolo[2,3-b]pyridin-4-yl)oxy)phenyl)propan-1-one], the Ki at Rho kinase 1 (ROCK-I) and at Rho kinase 2 (ROCK-II) was less than 3 nM in each case.

On to `CN1CCC(NC(=O)[C@@H](N)Cc2ccc(Oc3ccnc4[nH]cc(C#N)c34)c(F)c2)CC1` [Example 222, (S)-2-amino-3-(4-((3-cyano-1H-pyrrolo[2,3-b]pyridin-4-yl)oxy)-3-fluorophenyl)-N-(1-methylpiperidin-4-yl)propanamide], for which the Ki at Rho kinase 1 (ROCK-I) and on Rho kinase 2 (ROCK-II) was less than 3 nM in each case.

Regarding `Cc1c[nH]c2nccc(Oc3ccc(C[C@H](N)C(=O)N4CCC(S(=O)(=O)c5ccccc5)CC4)cc3F)c12` [Example 7, (S)-2-amino-3-(3-fluoro-4-((3-methyl-1H-pyrrolo[2,3-b]pyridin-4-yl)oxy)phenyl)-1-(4-(phenylsulfonyl)piperidin-1-yl)propan-1-one], the Ki at Rho kinase 1 (ROCK-I) and at Rho kinase 2 (ROCK-II) was less than 3 nM in each case.

Regarding `Cc1c[nH]c2nccc(Oc3ccc(CC(N)C(=O)N4CCN(Cc5ccccc5)CC4)cc3F)c12` (single isomer, unassigned) [Example 132A, 2-amino-1-(4-benzylpiperazin-1-yl)-3-(3-fluoro-4-((3-methyl-1H-pyrrolo[2,3-b]pyridin-4-yl)oxy)phenyl)propan-1-one], the Ki on Rho kinase 1 (ROCK-I) and on Rho kinase 2 (ROCK-II) was less than 3 nM in each case.

As for `Cc1c[nH]c2nccc(Oc3ccc(C[C@H](N)C(=O)NC4(C(N)=O)CCCCC4)cc3F)c12` [Example 35, (S)-1-(2-amino-3-(3-fluoro-4-((3-methyl-1H-pyrrolo[2,3-b]pyridin-4-yl)oxy)phenyl)propanamido)cyclohexanecarboxamide], the Ki on Rho kinase 1 (ROCK-I) and at Rho kinase 2 (ROCK-II) was less than 3 nM throughout.

`N[C@@H](Cc1ccc(Oc2ccnc3[nH]cc(C4=CCNC4)c23)cc1)C(=O)N1CCN(Cc2ccccc2)CC1` [Example 202, (S)-2-amino-1-(4-benzylpiperazin-1-yl)-3-(4-((3-(2,5-dihydro-1H-pyrrol-3-yl)-1H-pyrrolo[2,3-b]pyridin-4-yl)oxy)phenyl)propan-1-one]: the inhibitory constant (Ki) at Rho kinase 1 (ROCK-I) and on Rho kinase 2 (ROCK-II) was 3 to 30 nM each time.

Regarding `Cc1c[nH]c2ncnc(Oc3ccc(C[C@H](N)C(=O)N4C[C@@H]5C[C@H]4CN5C)cc3F)c12` [Example 121, 2-amino-3-(3-fluoro-4-((5-methyl-7H-pyrrolo[2,3-d]pyrimidin-4-yl)oxy)phenyl)-1-((1S,4S)-5-methyl-2,5-diazabicyclo[2.2.1]heptan-2-yl)propan-1-one], the Ki on Rho kinase 1 (ROCK-I) and at Rho kinase 2 (ROCK-II) was 3 to 30 nM in each case.

`N[C@@H](Cc1ccc(Oc2ncnc3[nH]ccc23)cc1)C(=O)NC1CCCCC1` [Example 225, (S)-3-(4-((7H-pyrrolo[2,3-d]pyrimidin-4-yl)oxy)phenyl)-2-amino-N-cyclohexylpropanamide]: the inhibitory constant (Ki) on Rho kinase 1 (ROCK-I) and on Rho kinase 2 (ROCK-II) was more than 30 nM in each case.

Consider `CN1CCC(NC(=O)[C@@H](N)Cc2ccc(Oc3ccnc4[nH]cc(CO)c34)c(F)c2)CC1` [Example 210, (S)-2-amino-3-(3-fluoro-4-((3-(hydroxymethyl)-1H-pyrrolo[2,3-b]pyridin-4-yl)oxy)phenyl)-N-(1-methylpiperidin-4-yl)propanamide], for which the Ki on Rho kinase 1 (ROCK-I) and on Rho kinase 2 (ROCK-II) was 3 to 30 nM throughout.

As to `Cc1c[nH]c2nccc(Oc3ccc(C[C@H](N)C(=O)N4CCC(Cc5ccccc5)CC4)cc3F)c12` [Example 13, (S)-2-amino-1-(4-benzylpiperidin-1-yl)-3-(3-fluoro-4-((3-methyl-1H-pyrrolo[2,3-b]pyridin-4-yl)oxy)phenyl)propan-1-one], the Ki at Rho kinase 1 (ROCK-I) and at Rho kinase 2 (ROCK-II) was less than 3 nM each time.

On to `Cc1c[nH]c2nccc(Oc3ccc(C[C@H](N)C(=O)NC4(CO)CCOCC4)cc3F)c12` [Example 33, (S)-2-amino-3-(3-fluoro-4-((3-methyl-1H-pyrrolo[2,3-b]pyridin-4-yl)oxy)phenyl)-N-(4-(hydroxymethyl)tetrahydro-2H-pyran-4-yl)propanamide], for which the Ki on Rho kinase 1 (ROCK-I) and on Rho kinase 2 (ROCK-II) was less than 3 nM in each case.

In the case of `Cc1c[nH]c2nccc(Oc3ccc(C[C@H](N)C(=O)N4CCN(Cc5cnn(C)c5)CC4)cc3F)c12` [Example 163, (S)-2-amino-3-(3-fluoro-4-((3-methyl-1H-pyrrolo[2,3-b]pyridin-4-yl)oxy)phenyl)-1-(4-((1-methyl-1H-pyrazol-4-yl)methyl)piperazin-1-yl)propan-1-one], the Ki on Rho kinase 1 (ROCK-I) and at Rho kinase 2 (ROCK-II) was less than 3 nM throughout.

With `N[C@@H](Cc1ccc(Oc2ccnc3[nH]cc(C4=CCOC4)c23)cc1)C(=O)N1CCN(Cc2ccccc2)CC1` [Example 201, (S)-2-amino-1-(4-benzylpiperazin-1-yl)-3-(4-((3-(2,5-dihydrofuran-3-yl)-1H-pyrrolo[2,3-b]pyridin-4-yl)oxy)phenyl)propan-1-one], the Ki at Rho kinase 1 (ROCK-I) and on Rho kinase 2 (ROCK-II) was less than 3 nM each time.

`CN1CCC(NC(=O)[C@@H](N)Cc2ccc(Oc3ccnc4[nH]cc(-c5cncs5)c34)c(F)c2)CC1` [Example 205, (S)-2-amino-3-(3-fluoro-4-((3-(thiazol-5-yl)-1H-pyrrolo[2,3-b]pyridin-4-yl)oxy)phenyl)-N-(1-methylpiperidin-4-yl)propanamide]: the Ki on Rho kinase 1 (ROCK-I) and on Rho kinase 2 (ROCK-II) was less than 3 nM throughout.

Consider `N[C@@H](Cc1ccc(Oc2ccnc3[nH]ccc23)c(F)c1)C(=O)NC1CCCCC1` [Example 146, (S)-3-(4-((1H-pyrrolo[2,3-b]pyridin-4-yl)oxy)-3-fluorophenyl)-2-amino-N-cyclohexylpropanamide], for which the Ki on Rho kinase 1 (ROCK-I) and on Rho kinase 2 (ROCK-II) was less than 3 nM each time.

With `Cc1c[nH]c2nccc(Oc3ccc(C[C@H](N)C(=O)NCCc4cnn(-c5ccccc5)c4)cc3F)c12` [Example 56, (S)-2-amino-3-(3-fluoro-4-((3-methyl-1H-pyrrolo[2,3-b]pyridin-4-yl)oxy)phenyl)-N-(2-(1-phenyl-1H-pyrazol-4-yl)ethyl)propanamide], the Ki at Rho kinase 1 (ROCK-I) and on Rho kinase 2 (ROCK-II) was less than 3 nM in each case.

As to `Cc1c[nH]c2nccc(Oc3ccc(C[C@H](N)C(=O)N4CCN(Cc5csnn5)CC4)cc3F)c12` [Example 164, (S)-1-(4-((1,2,3-thiadiazol-4-yl)methyl)piperazin-1-yl)-2-amino-3-(3-fluoro-4-((3-methyl-1H-pyrrolo[2,3-b]pyridin-4-yl)oxy)phenyl)propan-1-one], the inhibition constant (Ki) on Rho kinase 1 (ROCK-I) and on Rho kinase 2 (ROCK-II) was less than 3 nM throughout.

For the molecule `Cc1c[nH]c2nccc(Oc3ccc(C[C@H](N)C(=O)N4CC(CN(C)C)C4)cc3F)c12` [Example 48, (S)-2-amino-1-(3-((dimethylamino)methyl)azetidin-1-yl)-3-(3-fluoro-4-((3-methyl-1H-pyrrolo[2,3-b]pyridin-4-yl)oxy)phenyl)propan-1-one], the Ki on Rho kinase 1 (ROCK-I) and on Rho kinase 2 (ROCK-II) was less than 3 nM each time.

For the molecule `N#Cc1c[nH]c2nccc(Oc3ccc(C[C@H](N)C(=O)N4CCN(Cc5ccccn5)CC4)cc3F)c12` [Example 224, (S)-4-(4-(2-amino-3-oxo-3-(4-(pyridin-2-ylmethyl)piperazin-1-yl)propyl)-2-fluorophenoxy)-1H-pyrrolo[2,3-b]pyridine-3-carbonitrile], the Ki at Rho kinase 1 (ROCK-I) and at Rho kinase 2 (ROCK-II) was less than 3 nM in each case.
